{"source": "patent US20090017006A1", "about": "“USE OF A COMPOUND FOR ENHANCING THE EXPRESSION OF MEMBRANE PROTEINS ON THE CELL SURFACE” (BIODEVELOPS PHARMA ENTWICKLUNG GMBH, priority 2005, published 2009)", "format_in_all_cases": "cell-based", "key": {"HEK293 cells": {"system": "HEK293 cells", "assay": "FACS propidium iodide staining: cell cycle distribution / apoptosis of transfected HEK293 cells", "method": "(§1) Cultured HEK293 cells were transfected with plasmids encoding CFTR or CFTR-ΔF508 (GFP-tagged) and/or co-transfected with plasmids encoding USP4 (or an appropriate control plasmid) by using the CaPO4-precipitation method. Sixteen hours after transfection the cells were treated with varying concentrations of compounds. At a specific time point (here 24 h) the cells are trypsinized, fixed in ethanol, permeabilized and stained with propidium iodide (PI). The stained cells are subjected to FACS analysis\nTransiently transfected HE 293 cells were fixed in ethanol 24 h after transfection as mentioned above and then stained with propidium iodide to label the DNA: the rationale was to examine the distribution of cells in the cell cycle (=to see if the expression of CFTR or of CFTR-ΔF508 was toxic or if the compounds employed killed the cells/drove them into apoptosis).\nOne can plot the cell counts against the propidium iodide fluorescence of the transfected cells (such as shown in, for example, FIG. 2b): This gives a peak of cells (denoted by M1) that have a 2n content of DNA (G1-cells), a shoulder of cells that have a DNA content of larger than 2n (denoted by M3 and representing cells that are in S-phase) and a second peak of cells that have a DNA content of 4n (denoted by M2 and representing cells in G2 and M-phase)."}, "CFTR-ΔF508 [1]": {"system": "CFTR-ΔF508", "assay": "FACS monitoring of expression of GFP-tagged CFTR-ΔF508 in HEK293 cells", "conditions": "for CFTR-ΔF508-associated fluorescence (expression level) versus control: 24 h", "method": "as §1\nBecause CFTR is tagged with a fluorescent protein, expression in individual cells can be monitored by fluorescence activated cell sorting (FACS). By contrast with fluorescence microscopy (where individual cells are picked), FACS allows to survey the entire cell population. In addition, FACS has the advantage that it allows for reasonable sample throughput; finally, automation and scale-up is readily possible.\nThe original data set is shown on the right hand side of the figures, respectively (see e.g. FIG. 2c): the x-axis is the propidium iodide fluorescence (note that the scale is linear). The y-axis is the GFP-fluorescence (=fluorescence associated with CFTR; note that the scale is logarithmic) and each dot corresponds to a cell. The quadrangle delineates the cells that express CFTR."}, "CFTR-ΔF508 [2]": {"system": "CFTR-ΔF508", "assay": "Immunoblot for GFP-tagged CFTR-ΔF508 expressed in HEK293 cells (endoglycosidase H treated extracts)", "parameters": "accumulation of CFTR-ΔF508 (intensity of staining compared to control lane 4): unit of the concentration uncertain", "conditions": "for accumulation of CFTR-ΔF508 (intensity of staining compared to control lane 4): treated overnight (16 h)", "method": "HEK293 cells (1*10^6 cells) were transfected with plasmids encoding CFTR or CFTR-ΔF508 (GFP-tagged) and/or co-transfected with effector plasmids. After 16 h, the cells were treated with the varying concentrations of compounds. After 24 h, the cells were harvested in phosphate-buffered saline, lysed by a freeze-thaw cycle and homogenized by sonication. The homogenate was resuspended in reducing Laemmli sample buffer (50 mM Tris.Hcl, pH 6.8, 20% glycerol, 0.1% bromophenol blue, 2% SDS and 20 mM dithiothreitol); aliquots (15% of the original culture) were resolved on a denaturing polyacrylamide gel (monomer concentration in the stacking gel and in the running gel 4 and 8% respectively) and electrophoretically transferred to a nitrocellulose membrane. Immunodetection was done with an antiserum directed against GFP as the primary antibody and an anti-rabbit IgG coupled to horseradish peroxidase as the secondary antibody.\nIn a first example, Membranes from transfected cells were prepared and immunoblotted for GFP-tagged CFTR or CFTR-ΔF508, respectively (by using an antibody directed against the fluorescent protein).\nThe membrane extract was also treated endoglycosidase H. The rationale for this experiment is as follows: membrane proteins are core glycosylated in the endoplasmatic reticulum. Core glycosylation is sensitive to endoglycosidase H. If the protein has reached the Golgi (and then trafficked to the plasma membrane), it acquires additional sugar moieties and becomes resistant to endoglycosidase H. It is evident from lane 3 in FIG. 1 that endoglycosidase H treatment reduces the apparent size of CFTR; thus, the bulk of the protein is still in the ER. The following lanes examine the expression of CFTR-ΔF508 (all extracts were treated with endoglycosidase H): lane 4 is the control, that is cells expressing CFTR-ΔF508; in lanes 5, 6, 7 and 8 cells expressing CFTR-ΔF508 were treated overnight (i.e. for 16 h) with 100 nM MG132, […], […] and 100 nM bortezomib, respectively."}, "[3]": {"conditions": "cells cotransfected with plasmid driving expression of USP4"}}, "note": "Entries after “also recorded” stand apart in the source; their conditions may differ. Residues, ends and D or L forms follow the SMILES beside them. *: point of attachment. Cbz = O=C(OCc1ccccc1)*", "data": [{"molecule": "CC(C)C[C@H](NC(=O)[C@H](Cc1ccccc1)NC(=O)c1cnccn1)B(O)O", "note": "[Bortezomib, N-(2-pyrazine)carbonyl-L-phenylalanine-L-leucine-boronic acid]", "values": [{"measurement": "cell cycle distribution of CFTR-ΔF508 expressing cells versus control", "setting": "HEK293 cells; 10 nM, HEK293 cells", "result": "essentially the same as the one shown in control cells"}, {"measurement": "number of cells with low propidium iodide fluorescence (apoptotic cells)", "setting": "HEK293 cells; 100 nM, HEK293 cells", "result": "number of cells with low propidium iodide fluorescence increases"}, {"measurement": "peak of the G1-cells (M1) in cell cycle distribution", "setting": "HEK293 cells; 100 nM, HEK293 cells", "result": "greatly reduced"}, {"measurement": "number of cells with low propidium iodide fluorescence (apoptotic cells)", "setting": "HEK293 cells; 1 μM, HEK293 cells", "result": "number of cells with low propidium iodide fluorescence increases"}, {"measurement": "peak of the G1-cells (M1) in cell cycle distribution", "setting": "HEK293 cells; 1 μM, HEK293 cells", "result": "greatly reduced"}, {"measurement": "CFTR-ΔF508-associated fluorescence (expression level) versus control", "setting": "CFTR-ΔF508 [1]; 10 nM, HEK293 cells", "result": "expression of CFTR is increased; also recorded: substantially increases the level of CFTR-ΔF508"}, {"measurement": "CFTR-ΔF508-associated fluorescence (expression level) versus control", "setting": "CFTR-ΔF508 [1]; 100 nM, HEK293 cells", "result": "expression of CFTR is increased"}, {"measurement": "relative effectiveness in accumulation of CFTR-ΔF508, 100 nM versus 1 μM", "setting": "CFTR-ΔF508 [2]; 100 nM compared with 1 μM, 16 h", "result": "more effective than 1 μM bortezomib"}, {"measurement": "accumulation of CFTR-ΔF508 (intensity of staining compared to control lane 4)", "setting": "CFTR-ΔF508 [2]; 100 nM", "result": "led to the accumulation of CFTR-ΔF508"}, {"measurement": "accumulation of CFTR-ΔF508 (intensity of staining compared to control lane 4)", "setting": "CFTR-ΔF508 [2]; 1 (unit uncertain)", "result": "led to the accumulation of CFTR-ΔF508"}]}, {"molecule": "CC(C)C[C@@H](C=O)NC(=O)[C@H](CC(C)C)NC(=O)[C@H](CC(C)C)NC(=O)OCc1ccccc1", "note": "[MG132] (Cbz-Leu-Leu-Leu-aldehyde)", "values": [{"measurement": "apoptotic effect", "setting": "HEK293 cells; 1 μg, HEK293 cells", "result": "pronounced apoptotic effect"}, {"measurement": "CFTR-ΔF508-expression", "setting": "CFTR-ΔF508 [1]; 1 μg, HEK293 cells", "result": "enhances CFTR-ΔF508-expression"}]}, {"molecule": "O=C1N[C@@H]2[C@@H](O)[C@@H](O)[C@H](O)[C@@H](CO)N2C1=O", "note": "[kifunensine]", "values": [{"measurement": "accumulation of CFTR-ΔF508 (intensity of staining compared to control lane 4)", "setting": "CFTR-ΔF508 [2]; 20 (unit uncertain)", "result": "led to the accumulation of CFTR-ΔF508"}]}, {"molecule": "USP-4: deubiquitinating enzyme (ubiquitin specific protease), co-expressed in cells from a transfected plasmid", "values": [{"measurement": "toxicity / apoptosis (cell cycle distribution, sub-2n fraction)", "setting": "HEK293 cells; [3]", "result": "not toxic and does not cause apoptosis"}, {"measurement": "CFTR-ΔF508-associated fluorescence versus control", "setting": "CFTR-ΔF508 [1]; [3]", "result": "CFTR-ΔF508-associated fluorescence increases"}]}]}
